In patent publication US20060148030A1, “Nuclear receptor err y 3” (FUJISAWA PHARMACEUTICAL CO., LTD, priority 2002, published 2006):

B1: ERRγ3: novel ERRγ isoform, nuclear receptor protein of 396 amino acids (SEQ ID NO: 2) lacking part of the DNA binding domain (protein, listed as Homo sapiens)
chain: MSNKDRHIDSSCSSFIKTEPSSPASLTDSVNHHSPGGSSDASGSYSSTMNGHQNGLDSPPLYPSAPILGGSGPVRKLYDDCSSTIVEDPQTKCEYMLNSMPKRLCLVCGDIASGYHYGVASCEACKAFFKRTIQGVRLDRVRGGRQKYKRRIDAENSPYLNPQLAQPAKKPYNKIVSHLLVAEPEKIYAMPDPTVPDSDIKALTTLCDLADRELVVIIGWAKHIPGFSTLSLADQMSLLQSAWMEILILGVVYRSLSFEDELVYADDYIMDEDQSKLAGLLDLNNAILQLVKKYKSMKLEKEEFVTLKAIALANSDSMHIEDVEAVQKLQDVLHEALQDYEAGQHMEDPRRAGKMLMTLPLLRQTSTKAVQHFYNIKLEGKVPMHKLFLEMLEAKV

How the values were obtained:
ERRγ1 = target: T1, ERRγ1 (Homo sapiens, UniProt P62508); details: stated as known property; cited from earlier work
T1 sequence (P62508 1-435 isoform P62508-2): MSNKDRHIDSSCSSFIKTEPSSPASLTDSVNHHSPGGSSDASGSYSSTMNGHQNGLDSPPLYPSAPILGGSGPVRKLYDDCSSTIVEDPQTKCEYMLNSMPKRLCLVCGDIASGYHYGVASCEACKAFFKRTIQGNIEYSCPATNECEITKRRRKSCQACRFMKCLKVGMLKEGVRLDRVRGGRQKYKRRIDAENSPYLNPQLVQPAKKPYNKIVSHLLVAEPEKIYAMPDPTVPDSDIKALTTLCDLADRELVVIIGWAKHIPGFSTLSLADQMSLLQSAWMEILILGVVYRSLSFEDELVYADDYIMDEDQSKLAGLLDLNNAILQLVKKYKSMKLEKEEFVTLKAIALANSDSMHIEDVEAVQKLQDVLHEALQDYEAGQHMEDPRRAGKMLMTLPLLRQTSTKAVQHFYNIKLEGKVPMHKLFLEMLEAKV

[1] = system: ERE (estrogen response element); assay: Reporter gene assay of ERRγ3 alone, ERE luciferase reporter in CV-1 cells; type: cell-based, African green monkey; details: ERRγ3 expression plasmid alone, FIG. 15
Method: In order to construct a reporter gene assay system for evaluation of the transcription-controlling activity of ERRγ3, a reporter plasmid into which ERE (estrogen response element) was inserted was prepared along with expression plasmids for ERRγ3 and ERRγ2, as follows: A reporter gene assay was performed by transfecting the reporter plasmid and expression plasmids into cultured cells by lipofection, followed by incubating the cells for a certain time, treating the cells with cell lysis solution, and measuring reporter activity with a luminometer using a Dual luciferase assay. […]
The transcription-controlling activity of ERRγ3 was evaluated using a reporter gene assay. […]
The reporter gene assay was performed using CV-1 cells (African green monkey kidney-derived cell line) as hosts. […] They were then exposed to 4-hydroxytamoxifen at different concentrations (0, 10^−10 to −10^−5 M) for 24 hours, whereupon luciferase activity within the cells was measured.
Transfection was performed as follows: CV-1 cells were suspended at 2×10^5 cells/2.5 ml in DMEM medium supplemented with 10% fetal bovine serum, 2000 U/l of penicillin G, and 100 mg/l streptomycin. […] 1 μg of each of the transcription factor expression plasmid, the luciferase reporter plasmid, and another luciferase reporter plasmid for normalizing the measured value (pRL-TK), were dissolved in Opti-MEM (Gibco BRL) to total of 150 μl. […]

Row | Molecule | binding to ERRγ1 (ERRγ1) | transcription-controlling activity of ERRγ3 by itself [1]
1 | 4-hydroxytamoxifen [reference compound] | capable of binding | 
2 | B1 |  | does not comprise the transcription-controlling activity
